Data from patent US20240043859A1, “HERBICIDE-RESISTANT PROTEIN, AND GENE AND USE THEREOF” (QINGDAO KINGAGROOT CHEMICAL COMPOUND CO., LTD., priority 2020, published 2024).
Entries after “also recorded” stand apart in the source; their conditions may differ.

System: maize B104
Experiment: Herbicide-resistance capacity testing of transgenic maize (spray)
Type: in vivo
Settings: 4.48 kg/ha foliage spray, 14 days / 15 days
Source text: 1. Vector construction: the overexpression vector was altered from pCambia3300, containing a Bar resistance gene that can be used as a selection marker for bialaphos (glufosinate). The AAD-like gene, QYD42, SEQ ID NO. 83, was linked to the pCambia3300 at the BamH I restriction site by seamless cloning to construct the transgenic vector pQY2329, of which the expression cassette consisted of a maize ubiquitin-1 promoter, the AAD gene and a Nos terminator, as shown in FIG. 7-1.
2. Genetic transformation of maizes: Maize transformation was carried out by the Agrobacterium-mediated immature embryo transformation method (Jones T, Lowe K, Hoerster G, et al. Maize Transformation Using the Morphogenic Genes Baby Boom and Wuschel2. Methods Mol Biol. 2019; 1864:81-93. Doi: 10.1007/978-1-4939-8778-8 6). The Agrobacterium (EHA105) comprising the pQY2329 overexpression vector was inoculated into YEP liquid medium (containing 25 mg/L Rifampicin and 50 mg/L Kanamycin), and shaking-cultured a t 28° C., 220 rmp/min overnight until the OD600 was about 1.0-1.5, then centrifuged at 6000 rmp/min for 10 min to collect the cells into a 50 ml centrifuge tube (sterilized). After discarding the supernatant, the cells were resuspended using MS infect culture medium (containing 68.5 g/L sucrose, 36 g/L glucose, pH 5.8) to OD550=0.8. […]

O=C(O)COc1ccc(Cl)cc1Cl [2,4-D, (2,4-dichlorophenoxy)acetic acid, reference compound]
Effect of the herbicide spray on non-transgenic maize B104: apparent phytotoxicity, root nodules, reduced root system and easily-lodging plant; also recorded: stem bases of maize B104 are swollen
